In publication PMC4706618, “Comparison of bactericidal and cytotoxic activities of trichogin analogs” (Data in Brief, 2015):
In brackets after ≈: the same amount, converted by molar mass. Where two headings read alike, the source gives them in different places. Non-standard residues stand in square brackets, D forms with d. Residues, ends and D or L forms follow the SMILES beside them. *: point of attachment. Leu(ol) = CC(C)C[C@H](N)CO; Octanoyl = CCCCCCCC(=O)*; Aib = CC(C)(N)C(=O)O

Tests used:
[1] = system: human cells (lymphocytes, PMNs, monocytes, HL60, HeLa, A431, A549, CCD34Lu); experiment: Cytotoxicity on human cells, MTS reduction and LDH release; assay type: cell-based; details: 24 h, MTS/LDH EC50, all tested cells; in words
Protocol: (§1) To monitor the possible differential cytocidal effect of trichogin and its analogs on human cells (healthy and cancer cells, non-leukocytes and leukocytes), we incubated the peptides with (i) primary human leukocytes (lymphocytes, PMNs and monocytes), freshly isolated from blood of healthy donors (ii) the monocytes-like HL60 cell line from human myeloid leukemia, and (iii) three tumor-derived non-leukocyte cells lines: HeLa ([…]), A431 (human epidermoid carcinoma) and A549 (human lung carcinoma) and the in vitro stabilized line CCD34Lu (from human normal lung).
(§2) HeLa, A431 and CCD34-Lu cells were maintained in DMEM medium (Gibco), A549 in F12 medium (Gibco) and HL60 in RPMI medium (Gibco), supplemented with 10% FCS (Euroclone) and antibiotics (penicillin and streptomycin, 100 U/ml, Invitrogen) at 37 °C in a humidified atmosphere containing 5% (v/v) CO2; cells were split every 2–3 days. Human monocytes, polymorphonuclear leukocytes (PMNs) and lymphocytes were purified from buffy coats of healthy donors, kindly provided by the Centro Immunotrasfusionale, Hospital of Padova. Briefly, for monocyte purification, peripheral blood mononuclear cells (PBMC) were isolated from buffy coats of healthy donors by density gradient centrifugation on Ficoll-Paque Plus (GE Health care), which density is optimized for the isolation of mononuclear cells. Separate monocyte and T-cell fractions were obtained from PBMCs by Percoll density gradient centrifugation (GE Health care); residual lymphocytes were removed by incubation in 2% fetal calf serum (FCS) RPMI at 37 °C and subsequently washed to eliminate non adherent cells. Unless otherwise specified, cells were kept at 37 °C in a humidified atmosphere containing 5% (v/v) CO2 in RPMI-1640 supplemented with 10% FCS. For PMNs purification, the pellet of cells obtained after the centrifugation on Ficoll gradient was subjected to dextran erythrocytes precipitation; residual erythrocytes were removed by hypotonic lysis in 155 mM NH4Cl, 10 mM KHCO3, and […] Na2EDTA at pH 7.4 and cells were cultured in RPMI medium, supplemented with 10% FCS. For lymphocytes preparation, buffy coats were incubated with 50 μl/ml of Rosette Sep® Human T Cell Enrichment Cocktail (StemCell Technologies). Blood was then centrifuged over a Ficoll gradient and cells were cultured in RPMI medium, supplemented with 10% FCS.
(§3) Twenty-four hours before the experiment, A431, HeLa, A549 and CC34-Lu cells were detached by means of trypsin treatment (Gibco), counted and seeded onto a 96 wells/plate (8×10^3 cells/well, Falcon). After purification, monocytes were seeded onto a 96 wells/plate (2×10^6/well) and left to adhere to the plastic; then cells were immediately treated with stimuli. PMNs and lymphocytes (2×10^6 cells/well) and HL60 cells (40×10^3) were seeded onto cell plates and subsequently treated. Different peptides were diluted in culture medium (from 20 μM to 1 μM) and added to the cells. As a […] control cells were treated with medium without stimuli. Twenty-four hours after treatment, the cell supernatant was collected for subsequent assay (LDH assay) and cells were tested using a CellTiter 96® AQueous One Solution Reagent (Promega). Plates were read with an ELISA reader (Amersham Biosciences) at 492 nm. Data were expressed as % of absorbance value compared to untreated cells (assumed as 100% viable). Alternatively, the EC50 (the concentration of drug where 50% of cells died) was calculated for each peptide and each kind of tested cell.
(§4) 50 μl of the cell supernatant was tested with a CytoTox 96® Non-Radioactive Cytotoxicity Assay kit (Promega). EC50 (the concentration of drug that induced the lysis of 50% of the total cell number) was calculated for each peptide and each kind of tested cell.

[2] = system: P. aeruginosa ATCC 25668; assay type: cell-based, Pseudomonas aeruginosa
Protocol: (§5) E. coli ATCC 25922, the methicillin-resistant strain of S. aureus, ATCC BAA-44, P. aeruginosa ATCC 25668 and S. epidermidis ATCC 700565 was a kind gift of Prof. Elena Reddi (Dept. of Biology, University of Padova, Italy). Cultures were maintained in Luria Bertani (LB) agar. MICs (Minimal inhibitory concentrations) of the peptides were determined using the broth microdilution method. Two-fold serial dilutions of each peptide, from 1 to 64 μM, were prepared in LB and 50 μl per well were arranged in sterile 96-well plates (Falcon). Then, an aliquot of bacterial cell suspension was added to each well, at a final concentration of 5×10^5 CFU/ml.

[3] = system: S. epidermidis ATCC 700565; assay type: cell-based, Staphylococcus epidermidis
Protocol: as §5

[4] = system: Gram^− and Gram^+ bacteria; experiment: Antibacterial activity, all strains taken together; assay type: cell-based; details: additional U at position 6 or U1 replaced with L; in words
Protocol: as §5

[5] = system: E. coli ATCC 25922; assay type: cell-based, Escherichia coli
Protocol: as §5

[6] = system: S. aureus, ATCC BAA-44 (methicillin-resistant strain); assay type: cell-based, Staphylococcus aureus
Protocol: as §5

[7] = Cytotoxicity on human cells, MTS reduction and LDH release; assay type: cell-based; details: human, from MTS and LDH EC50 values, compared with trichogin, all cell models, read-out: reduction of cytocidal effect / cell toxicity (% inhibition)
Protocol: as §1, §2, §3, §4

[8] = after 24 h at 37 °C, broth microdilution in LB, 5×10^5 CFU/ml, ±SE, N≥4, peptide dose range 0–64 µM

Row | Structure (SMILES) | cytotoxicity compared with trichogin or the corresponding analog [1] | MIC P. aeruginosa ([2]; ATCC 25668, 24 h) | MIC S. epidermis ([3]; ATCC 700565, 24 h) | antibacterial activity compared with the K-containing analogs [4] | MIC E. coli ([5]; ATCC 25922, 24 h) | MIC S. aureus ([6]; ATCC BAA-44, 24 h) | inhibition at 24 h [7] | MIC S. epidermis [3, 8] | MIC S. aureus [6, 8] | MIC P. aeruginosa [2, 8] | MIC E. coli [5, 8] | change of anti S. aureus activity compared with trichogin ([6]; MIC after 24 h, in words)
1 | CCCCCCCC(=O)NC(C)(C)C(=O)N[C@@H](CCCCN)C(=O)N[C@@H](CC(C)C)C(=O)NC(C)(C)C(=O)N[C@@H](CCCCN)C(=O)NC(C)(C)C(=O)N[C@@H](CC(C)C)C(=O)NC(C)(C)C(=O)N[C@@H](CCCCN)C(=O)N[C@H](C(=O)N[C@H](CO)CC(C)C)[C@@H](C)CC [K2K5K9U6] (Octanoyl-[Aib]KL[Aib]K[Aib]L[Aib]KI[Leu(ol)]) | increased cytotoxicity | 8 ± 0 µM (≈ 10.5 µg/mL) | 8 ± 0 µM (≈ 10.5 µg/mL) | failed to increase the antibacterial activity | 8 ± 0 µM (≈ 10.5 µg/mL) | 4 ± 0 µM (≈ 5.23 µg/mL) |  |  |  |  |  | 
2 | CCCCCCCC(=O)NC(C)(C)C(=O)N[C@@H](CCCCN)C(=O)N[C@@H](CC(C)C)C(=O)NC(C)(C)C(=O)N[C@@H](CCCCN)C(=O)NCC(=O)N[C@@H](CC(C)C)C(=O)NC(C)(C)C(=O)N[C@@H](CCCCN)C(=O)N[C@H](C(=O)N[C@H](CO)CC(C)C)[C@@H](C)CC [K2K5K9] (Octanoyl-[Aib]KL[Aib]KGL[Aib]KI[Leu(ol)]) |  | 13.3 ± 4.1 µM (≈ 17 µg/mL) | 4 ± 0.9 µM (≈ 5.12 µg/mL) |  | 14.9 ± 8.6 µM (≈ 19.1 µg/mL) | 4.3 ± 1.8 µM (≈ 5.5 µg/mL) |  |  |  |  |  | 
3 | CCCCCCCC(=O)NC(C)(C)C(=O)N[C@@H](CCCCN)C(=O)N[C@@H](CC(C)C)C(=O)NC(C)(C)C(=O)N[C@@H](CCCCN)C(=O)NCC(=O)N[C@@H](CC(C)C)C(=O)NC(C)(C)C(=O)NCC(=O)N[C@H](C(=O)N[C@H](CO)CC(C)C)[C@@H](C)CC [K2K5] (Octanoyl-[Aib]KL[Aib]KGL[Aib]GI[Leu(ol)]) |  | 16 ± 5 µM (≈ 19.3 µg/mL) | 5 ± 2.4 µM (≈ 6.04 µg/mL) |  | 13.7 ± 3.9 µM (≈ 16.6 µg/mL) | 3.3 ± 1.3 µM (≈ 3.99 µg/mL) |  |  |  |  |  | 
4 | CCCCCCCC(=O)NC(C)(C)C(=O)N[C@@H](CCCCN)C(=O)N[C@@H](CC(C)C)C(=O)NC(C)(C)C(=O)NCC(=O)N[C@@H](CCCCN)C(=O)N[C@@H](CC(C)C)C(=O)NC(C)(C)C(=O)NCC(=O)N[C@H](C(=O)N[C@H](CO)CC(C)C)[C@@H](C)CC [K2K6] (Octanoyl-[Aib]KL[Aib]GKL[Aib]GI[Leu(ol)]) |  | 17.6 ± 8.8 µM (≈ 21.3 µg/mL) | 3.2 ± 2.6 µM (≈ 3.87 µg/mL) |  | 12.6 ± 4.3 µM (≈ 15.2 µg/mL) | 2.8 ± 1.1 µM (≈ 3.38 µg/mL) |  |  |  |  |  | 
5 | CCCCCCCC(=O)NC(C)(C)C(=O)NCC(=O)N[C@@H](CC(C)C)C(=O)NC(C)(C)C(=O)N[C@@H](CCCCN)C(=O)N[C@@H](CCCCN)C(=O)N[C@@H](CC(C)C)C(=O)NC(C)(C)C(=O)NCC(=O)N[C@H](C(=O)N[C@H](CO)CC(C)C)[C@@H](C)CC [K5K6] |  | 16 ± 0 µM (≈ 19.3 µg/mL) | 4 ± 1 µM (≈ 4.83 µg/mL) |  | 16 ± 0 µM (≈ 19.3 µg/mL) | 4 ± 0 µM (≈ 4.83 µg/mL) | 50 to 60% |  |  |  |  | 
6 | CCCCCCCC(=O)NC(C)(C)C(=O)NCC(=O)N[C@@H](CC(C)C)C(=O)NC(C)(C)C(=O)N[C@@H](CCCCN)C(=O)NCC(=O)N[C@@H](CC(C)C)C(=O)NC(C)(C)C(=O)NCC(=O)N[C@H](C(=O)N[C@H](CO)CC(C)C)[C@@H](C)CC [K5] (Octanoyl-[Aib]GL[Aib]KGL[Aib]GI[Leu(ol)]) |  | >64 µM |  |  | 8 ± 2 µM (≈ 9.1 µg/mL) |  |  | 2 ± 0 µM (≈ 2.28 µg/mL) | 1 ± 0 µM (≈ 1.14 µg/mL) |  |  | 
7 | CCCCCCCC(=O)N[C@@H](CC(C)C)C(=O)N[C@@H](CCCCN)C(=O)N[C@@H](CC(C)C)C(=O)NC(C)(C)C(=O)NCC(=O)NCC(=O)N[C@@H](CC(C)C)C(=O)NC(C)(C)C(=O)NCC(=O)N[C@H](C(=O)N[C@H](CO)CC(C)C)[C@@H](C)CC [L1K2] (Octanoyl-LKL[Aib]GGL[Aib]GI[Leu(ol)]) | not significantly different | >64 µM | 4.7 ± 1.6 µM (≈ 5.48 µg/mL) | failed to increase the antibacterial activity | 22.9 ± 8.6 µM (≈ 26.7 µg/mL) | 4.6 ± 1.5 µM (≈ 5.36 µg/mL) |  |  |  |  |  | 
8 | CCCCCCCC(=O)N[C@@H](CC(C)C)C(=O)NCC(=O)N[C@@H](CC(C)C)C(=O)NC(C)(C)C(=O)NCC(=O)NCC(=O)N[C@@H](CC(C)C)C(=O)NC(C)(C)C(=O)N[C@@H](CCCCN)C(=O)N[C@H](C(=O)N[C@H](CO)CC(C)C)[C@@H](C)CC [L1K9] (Octanoyl-LGL[Aib]GGL[Aib]KI[Leu(ol)]) | not significantly different |  |  | failed to increase the antibacterial activity |  |  |  | 4.6 ± 1.5 µM (≈ 5.36 µg/mL) | 4.7 ± 1.6 µM (≈ 5.48 µg/mL) | >64 µM | 41.1 ± 15.6 µM (≈ 47.9 µg/mL) | 
9 | CCCCCCCC(=O)N[C@@H](CC(C)C)C(=O)NCC(=O)N[C@@H](CC(C)C)C(=O)N[C@@H](CC(C)C)C(=O)NCC(=O)NCC(=O)N[C@@H](CC(C)C)C(=O)N[C@@H](CC(C)C)C(=O)NCC(=O)N[C@H](C(=O)N[C@H](CO)CC(C)C)[C@@H](C)CC [L1L4L8] (Octanoyl-LGLLGGLLGI[Leu(ol)]) |  |  |  |  |  |  | 50 to 70% |  |  |  |  | 
10 | CCCCCCCC(=O)N[C@@H](CC(C)C)C(=O)NCC(=O)N[C@@H](CC(C)C)C(=O)NC(C)(C)C(=O)NCC(=O)NCC(=O)N[C@@H](CC(C)C)C(=O)N[C@@H](CC(C)C)C(=O)NCC(=O)N[C@H](C(=O)N[C@H](CO)CC(C)C)[C@@H](C)CC [L1L8] (Octanoyl-LGL[Aib]GGLLGI[Leu(ol)]) |  | >64 µM | >64 µM |  | >64 µM | 32 ± 0 µM (≈ 35.9 µg/mL) |  |  |  |  |  | 
11 | CCCCCCCC(=O)NC(C)(C)C(=O)NCC(=O)N[C@@H](CC(C)C)C(=O)N[C@@H](CC(C)C)C(=O)NCC(=O)NCC(=O)N[C@@H](CC(C)C)C(=O)NC(C)(C)C(=O)NCC(=O)N[C@H](C(=O)N[C@H](CO)CC(C)C)[C@@H](C)CC [L4] (Octanoyl-[Aib]GLLGGL[Aib]GI[Leu(ol)]) |  |  |  |  |  |  | 50 to 70% | >64 µM | >64 µM | >64 µM | >64 µM | no such increase
